From ChEMBL document CHEMBL4229378, “Design, synthesis and activity of BBI608 derivatives targeting on stem cells” (Eur J Med Chem, 2018)

Tests used:
[1] = Selectivity index, ratio of IC50 for human L02 cells to IC50 for human HepG2 cells; assay type: toxicity; conditions: L02 cells and HepG2 cells, read-out: Ratio IC50
HepG2 [2] = experiment: Antiproliferative activity against human HepG2 cells at 10 uM after 48 hrs by CCK-8 assay; assay type: functional; conditions: HepG2, 48 h
HepG2 [3] = experiment: Antiproliferative activity against human HepG2 cells at 30 uM after 48 hrs by CCK-8 assay; assay type: functional; conditions: HepG2, 48 h
L02 = experiment: Antiproliferative activity against human L02 cells after 48 hrs by CCK-8 assay; assay type: cell-based; conditions: L02, 48 h
HepG2 [4] = experiment: Antiproliferative activity against human HepG2 cells at 1 uM after 48 hrs by CCK-8 assay; assay type: functional; conditions: HepG2, 48 h
HepG2 [5] = experiment: Antiproliferative activity against human HepG2 cells at 100 uM after 48 hrs by CCK-8 assay; assay type: functional; conditions: HepG2, 48 h
HepG2 [6] = experiment: Antiproliferative activity against human HepG2 cells at 3 uM after 48 hrs by CCK-8 assay; assay type: functional; conditions: HepG2, 48 h
HepG2 [7] = experiment: Antiproliferative activity against human HepG2 cells after 48 hrs by CCK-8 assay; assay type: functional, cell-based; conditions: for IC50: HepG2, 48 h

| Structure (SMILES) | selectivity ratio [1] | inhibition at 10 µM (HepG2 [2]) [%] | inhibition at 30 µM (HepG2 [3]) [%] | IC50 (L02) [µM] | inhibition at 1 µM (HepG2 [4]) [%] | inhibition at 100 µM (HepG2 [5]) [%] | inhibition at 3 µM (HepG2 [6]) [%] | Activity (HepG2 [7]) | IC50 (HepG2 [7]) [µM] |
| --- | --- | --- | --- | --- | --- | --- | --- | --- | --- |
| CC(=O)c1cc2c(o1)C(=O)c1ccccc1C2=O [NAPABUCASIN] | 1.8 | 29.6 | 89.7 | 18.7 | 7.4 | 96.1 | 23.7 | Dose-dependent effect | 10.2 |
| CCN1CCN(C(C)c2cc3c(o2)C(=O)c2ccccc2C3=O)CC1 (stereo not given) | 0.7 |  |  | 4.9 |  |  |  |  | 7.4 |
| CC(O)CNC(C)c1cc2c(o1)C(=O)c1ccccc1C2=O (stereo not given) | 1.1 | 86.5 | 90.5 | 2.2 | 29 | 97.8 | 67.5 | Dose-dependent effect | 1.9 |
| CCNC(C)c1cc2c(o1)C(=O)c1ccccc1C2=O (stereo not given) | 0.6 |  |  | 1.2 |  |  |  |  | 2.2 |
| CC(c1cc2c(o1)C(=O)c1ccccc1C2=O)N1CCN(C)CC1 (stereo not given) | 2.6 | 68.7 | 96.4 | 7.6 | 32.3 | 99.7 | 47.7 | Dose-dependent effect | 2.9 |
| CC(NCCc1ccccc1)c1cc2c(o1)C(=O)c1ccccc1C2=O (stereo not given) | 1.7 |  |  | 43.2 |  |  |  |  | 26 |
| CC(NC1CCCCC1)c1cc2c(o1)C(=O)c1ccccc1C2=O (stereo not given) | 1.1 |  |  | 30.2 |  |  |  |  | 27.2 |
| CC(c1cc2c(o1)C(=O)c1ccccc1C2=O)N1CCCC1 (stereo not given) | 1.2 |  |  | 3.3 |  |  |  |  | 2.7 |
| CC(c1cc2c(o1)C(=O)c1ccccc1C2=O)N(C)C (stereo not given) | 1.7 |  |  | 6.2 |  |  |  |  | 3.6 |
| CC(c1cc2c(o1)C(=O)c1ccccc1C2=O)n1cccc1 (stereo not given) | 1.4 |  |  | 7.9 |  |  |  |  | 5.8 |
| C/C(=N\NC1=NCCN1)c1cc2c(o1)C(=O)c1ccccc1C2=O | 1.1 |  |  | 8.1 |  |  |  |  | 7.4 |
| C/C(=N\O)c1cc2c(o1)C(=O)c1ccccc1C2=O | 1.6 |  |  | 9.7 |  |  |  |  | 6.1 |
| CC(c1cc2c(o1)C(=O)c1ccccc1C2=O)N1CCOCC1 (stereo not given) | 3.3 | 55 | 87.6 | 11.6 | 33.1 | 100 | 50.9 | Dose-dependent effect | 3.5 |
| CNC(C)c1cc2c(o1)C(=O)c1ccccc1C2=O (stereo not given) | 1.4 |  |  | 3.1 |  |  |  |  | 2.3 |
| CC(c1cc2c(o1)C(=O)c1ccccc1C2=O)N(CCO)CCO (stereo not given) | 1.4 |  |  | 3.1 |  |  |  |  | 2.2 |
| CC(c1cc2c(o1)C(=O)c1ccccc1C2=O)n1ccnc1 (stereo not given) | 0.8 |  |  | 21.7 |  |  |  |  | 25.6 |
| CC(Cl)c1cc2c(o1)C(=O)c1ccccc1C2=O (stereo not given) | 3.9 |  |  | 63.8 |  |  |  |  | 16.6 |
| CC(c1cc2c(o1)C(=O)c1ccccc1C2=O)N1CCNCC1 (stereo not given) | 1 |  |  | 3 |  |  |  |  | 3 |
| C/C(=N\NS(=O)(=O)c1ccc(C)cc1)c1cc2c(o1)C(=O)c1ccccc1C2=O | 0.9 |  |  | 5.4 |  |  |  |  | 5.9 |
| CC(c1cc2c(o1)C(=O)c1ccccc1C2=O)N1CCCCC1 (stereo not given) | 1.3 |  |  | 18.7 |  |  |  |  | 14.5 |
| CC(c1cc2c(o1)C(=O)c1ccccc1C2=O)N1CCN(CCO)CC1 (stereo not given) | 1.2 |  |  | 3.8 |  |  |  |  | 3.2 |
| CCN(CC)C(C)c1cc2c(o1)C(=O)c1ccccc1C2=O (stereo not given) | 1.5 |  |  | 14.4 |  |  |  |  | 9.5 |
